Laboratory results from publication doi:10.1101/2020.09.29.318170v1 (biorxiv, 2020).
Each block holds one compound with its values, some of them ahead of it.

Tests used:
Format in all cases: biochemical
Pd32 (with PdPP2C55) = target: T1, Pd32 (with PdPP2C55) (Phoenix dactylifera, UniProt A0A8B7C461); assay: phosphopeptide phosphatase inhibition assay; conditions: read-out: % inhibition of PdPP2C55 at 10 μM ABA
T1 sequence (A0A8B7C461 1-202): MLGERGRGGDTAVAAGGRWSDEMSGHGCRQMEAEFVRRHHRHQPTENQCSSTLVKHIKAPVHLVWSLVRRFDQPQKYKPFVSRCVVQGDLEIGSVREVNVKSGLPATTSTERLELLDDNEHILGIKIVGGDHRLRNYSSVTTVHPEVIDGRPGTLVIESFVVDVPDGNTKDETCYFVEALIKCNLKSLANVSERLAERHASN

Pd32 (with PdPP2C79) = target: T2, Pd32 (with PdPP2C79) (Phoenix dactylifera, UniProt A0A8B7C461); assay: phosphopeptide phosphatase inhibition assay; conditions: read-out: % inhibition of PdPP2C79 at 10 μM ABA
T2 sequence (A0A8B7C461 1-202): T1 sequence (A0A8B7C461 1-202)

Pd27 (with ΔNHAB1) = target: T3, Pd27 (with ΔNHAB1) (Phoenix dactylifera, UniProt A0A8B7BJV2); assay: pNPP phosphatase inhibition assay
T3 sequence (A0A8B7BJV2 1-205): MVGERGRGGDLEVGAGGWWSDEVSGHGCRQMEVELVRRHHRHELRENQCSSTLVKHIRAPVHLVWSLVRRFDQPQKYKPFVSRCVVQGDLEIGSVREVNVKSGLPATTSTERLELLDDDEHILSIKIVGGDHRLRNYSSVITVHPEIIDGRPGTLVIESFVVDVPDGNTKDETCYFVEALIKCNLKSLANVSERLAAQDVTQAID
T3 sequence (Q9CAJ0 179-511 partner limits assumed): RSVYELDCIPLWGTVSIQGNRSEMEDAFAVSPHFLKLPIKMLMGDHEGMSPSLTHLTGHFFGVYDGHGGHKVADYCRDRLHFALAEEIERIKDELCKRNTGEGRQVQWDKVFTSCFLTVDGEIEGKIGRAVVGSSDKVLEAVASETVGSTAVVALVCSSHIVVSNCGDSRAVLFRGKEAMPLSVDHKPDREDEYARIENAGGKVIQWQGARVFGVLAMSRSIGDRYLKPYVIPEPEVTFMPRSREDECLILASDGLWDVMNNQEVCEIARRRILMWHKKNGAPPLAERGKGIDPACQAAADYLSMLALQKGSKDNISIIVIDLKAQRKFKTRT

Pd957 (with ΔNHAB1) = target: T4, Pd957 (with ΔNHAB1) (Phoenix dactylifera, UniProt A0A8B7BRF0); assay: pNPP phosphatase inhibition assay; conditions: read-out: % inhibition of HAB1 at 10 μM
T4 sequence (A0A8B7BRF0 1-215): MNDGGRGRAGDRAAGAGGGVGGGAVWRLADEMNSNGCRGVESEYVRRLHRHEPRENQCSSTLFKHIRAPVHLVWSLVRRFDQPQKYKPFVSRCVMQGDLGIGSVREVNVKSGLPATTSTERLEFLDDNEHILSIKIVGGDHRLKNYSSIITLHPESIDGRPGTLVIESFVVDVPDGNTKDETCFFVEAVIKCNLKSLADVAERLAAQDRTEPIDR
T4 sequence (Q9CAJ0 179-511 partner limits assumed): T3 sequence (Q9CAJ0 179-511 partner limits assumed)

inhibition at 10 µM (Pd32 (with PdPP2C55)): 80%
inhibition at 10 µM (Pd32 (with PdPP2C79)): 30%
SMILES: CC1=CC(=O)CC(C)(C)[C@@]1(O)/C=C/C(C)=C\C(=O)O [ABA]

% inhibition of HAB1 at 10 μM (Pd27 (with ΔNHAB1); 10 μM agonist, 1 μM ΔNHAB1, 2 μM receptor, 15 mM pNPP, receptor agonist): 80%
SMILES: CCCN1C(=O)CCc2cc(NS(=O)(=O)Cc3c(F)c(F)c(C)c(F)c3F)ccc21 [AMF4]

inhibition at 10 µM (Pd27 (with ΔNHAB1); read-out: % inhibition of HAB1 at 10 μM): 80%
inhibition at 10 µM (Pd957 (with ΔNHAB1)): 20 to 30%
SMILES: CCCN1C(=O)CCc2cc(NS(=O)(=O)Cc3ccc(C)cc3)ccc21 [quinabactin]
